Laboratory results reported in patent publication US20080220065A1, “Compositions for treating foot odor and methods of use thereof” (priority 2007, published 2008).

What was measured:
foot odor [1] = experiment: efficacy duration study, twenty-six persons, right vs left footwear, olfactory evaluation; type: in vivo, human; conditions: for olfactory evaluation of footwear and feet: three days following administration
Procedure: Thereafter, to test the efficacy duration of the preferred mixture and concentration of the present invention, a study was conducted of twenty-six persons, male and female, ranging in ages from 7-71 years, all presenting with foul and distressing foot odor. These twenty-six persons had all of their “right-side” footwear treated with 1-1.25 g of cupric carbonate and their “left-side” footwear with 1-1.25 g sodium bicarbonate. Three days following administration, each shoe worn and both feet of each participant were evaluated via olfactory sense. Evaluation results were the same, without exception, for all participants.

foot odor [2] = experiment: dosing specification study, organoleptic odor evaluation, six volunteers; type: in vivo, human; conditions: for organoleptic odor evaluation: after three, 10 and 30 days
Procedure: Dosing specification studies were conducted in order to define a preferred minimum quantity for preferred use; although mindful of the differences in performance, more or less than the preferred minimum quantity could be utilized in alternate compositions. Initial test dosing was approximately 3.5 to 4.0 grams dispersed within each shoe, with excess bumped out through the footwear opening.
In the study, six volunteer participants with confirmed and self-recognized foot odor participated in trials to establish preferred upper and lower specification ranges. […] The left shoes were treated in a variable fashion, from an initial 3.5 gram dose to a final dose of 0.5 grams, via 0.5 gram increments. An organoleptic evaluation was performed by each test subject, and also be the inventor, after three days, 10 days, and 30 days of treatment for each dose.

foot odor [3] = experiment: initial empirical use studies in footwear
Source text: Initial empirical use studies involved finely divided elemental copper powder.

[4] = system: ubiquitous microbial cultures collected from common household and mammalian sources; experiment: filter disc incubation with streak-inoculated microbial cultures; type: cell-based; conditions: filter discs impregnated by aqueous saturation, incubated with the cultures
Procedure: Initial comparative studies were conducted in an effort to validate the antimicrobial activities of cupric compounds, wherein ubiquitous microbial cultures were collected from common household and mammalian sources and isolated in identifiable colonies by streak inoculation.

O=C([O-])O.[Na+] [sodium bicarbonate, reference compound] was tested, and the “olfactory evaluation of footwear and feet” value (foot odor [1]; 1-1.25 g per shoe) was “no obvious change in degree of unpleasant odor”.
cupric carbonate, CuCO3.Cu(OH)2 was tested, and the “efficacy against foot odor in earlier testing” value (foot odor [2]; 4.0 gram dosing, positive control, right shoe) was “shown the efficacy”, the organoleptic odor evaluation (foot odor [2]; dosed at or above 1.5 grams per shoe) was “no detectable trace of odor beyond that of damp footwear” and the organoleptic odor evaluation (foot odor [2]; dosed at or below 1.0 gram per shoe) was “some malodorous relief, but for a more limited period of time”. The contact dermatitis (foot odor [3]; in vivo) was “contact dermatitis was completely eliminated”, the antimicrobial properties [4] was “confirming the existence of antimicrobial properties” and the “olfactory evaluation of footwear and feet” value (foot odor [1]; 1-1.25 g per shoe) was “no detectable hint of unpleasantness”. The duration of effectiveness (foot odor [1]; 1-1.25 g per shoe, in many cases twelve months or more) was “at least six” and the effectiveness (foot odor [1]; for at least six months) was ~100%.
In the case of CC(=O)[O-].CC(=O)[O-].[Cu+2] [acetate solution, cupric acetate], the antimicrobial properties [4] is reported as “confirming the existence of antimicrobial properties”.
For cupric chloride, the contact dermatitis (foot odor [3]; use in footwear) was “varying degrees of contact dermatitis”.
